ChEMBL document CHEMBL5729670, “Method for controlling hematophagous or sap-feeding arthropods” (2023)

Assay: thallium-flux assay: The thallium flux assay is an in vitro method of measuring conductance through a potassium ion channel. Potassium channels are also permeable to thallium ions. The modulation of a K+ channel will thus increase or decrease thallium ion flow through the channel and thus, alter the observed fluorescence of a thallium-specific indicator dye.Stably transfected T-Rex-HEK-293-AnKir1 cells were cultured overnight in 384-well plates in media containing DMEM, 10% dialyzed FBS, and 1 μg/mL tetracycline to induce channel expression. The next day the cell culture medium was replaced with a dye-loading solution containing assay buffer (Hanks Balanced Salt Solution with 20 mM HEPES, pH 7.3), 0.01% (w/v) Pluronic F-127 (Life Technologies, Carlsbad, Calif.), and 1.2 μM of the thallium-sensitive dye Thallos-AM (TEFlabs, Austin, Tex.). After 1 hr incubation at room temperature, the dye-loading solution was washed from the plates and replaced with 20 μL/well of assay buffer. The plates were transferred to a Hamamatsu Functional Drug Screening System 6000 (FDSS6000; Hamamatsu, Tokyo, Japan), where 20 μL/well of each of the test compounds in assay buffer was added and allowed to incubate with the cells for 20 min. […]

IC50: 15 µM
Compound: O=C(Cn1nc(C(F)(F)F)c2c1CCCC2)N1CCc2ccccc2C1
